From ChEMBL document CHEMBL4196002, “Design, synthesis, mechanistic and histopathological studies of small-molecules of novel indole-2-carboxamides and pyrazino[1,2-a]indol-1(2H)-ones as potential anticancer agents effecting the reactive oxygen species production” (Eur J Med Chem, 2018)
Active and inactive are the calls of the source. The rule behind the calls is not given here.

Columns and labels:
[1] = Cytotoxicity against human MCF10A cells assessed as cell viability at 50 uM after 96 hrs by MTT assay relative to control; format: cell-based, MCF-10A; conditions: read-out: Activity
[2] = Inhibition of ROS generation in human PMN at 0.78 ug/ml after 50 mins by luminol-based chemiluminescence assay relative to control; format: functional
[3] = Inhibition of ROS generation in human PMN at 1.56 ug/ml after 50 mins by luminol-based chemiluminescence assay relative to control; format: functional
[4] = tested on: PC-3; experiment: Antiproliferative activity human PC3 cells after 48 hrs by propidium iodide staining-based fluorescence assay; format: functional, cell-based; conditions: PC-3, 48 h
[5] = tested on: A549; experiment: Antiproliferative activity human A549 cells after 48 hrs by propidium iodide staining-based fluorescence assay; format: functional, cell-based; conditions: A549, 48 h
[6] = tested on: MCF7; experiment: Antiproliferative activity human MCF7 cells after 48 hrs by propidium iodide staining-based fluorescence assay; format: functional, cell-based; conditions: MCF7, 48 h
[7] = tested on: MIA PaCa-2; experiment: Antiproliferative activity human MIAPaCa2 cells after 48 hrs by propidium iodide staining-based fluorescence assay; format: functional, cell-based; conditions: MIA PaCa-2, 48 h
[8] = tested on: HT-29; experiment: Antiproliferative activity human HT-29 cells after 48 hrs by propidium iodide staining-based fluorescence assay; format: functional, cell-based; conditions: HT-29, 48 h
[9] = molecular target: Tubulin (Homo sapiens) (UniProt P68371+Q9H4B7+P0DPH7+P68366+Q13509+Q71U36+P04350+Q3ZCM7+P07437+P68363+Q9BQE3+Q6PEY2+Q13885+Q9BVA1+Q9BUF5); experiment: Inhibition of tubulin (unknown origin) polymerization assessed as tubulin assembly rate by fluorescence assay; format: protein-complex assay
[10] = molecular target: Epidermal growth factor receptor (Homo sapiens, UniProt P00533); experiment: Inhibition of His6-tagged EGFR (unknown origin) cytoplasmic domain expressed in baculovirus infected Sf9 insect cells after 10 mins followed by addition of ATP-MgCl2 and measured after 1 hr by time-resolved fluorometric analysis
[11] = molecular target: Serine/threonine-protein kinase B-raf (Mus musculus, UniProt P28028, V600E); experiment: Inhibition of mouse full-length GST-tagged BRAF V600E mutant using recombinant human full length N-terminal His-tagged MEK1 as substrate preincubated for 60 mins followed by substrate addition and measured after 25 mins by ELISA
[12] = Inhibition of ROS generation in human PMN at 3.13 ug/ml after 50 mins by luminol-based chemiluminescence assay relative to control; format: functional
[13] = Inhibition of ROS generation in human PMN at 6.25 ug/ml after 50 mins by luminol-based chemiluminescence assay relative to control; format: functional
[14] = Inhibition of ROS generation in human PMN at 12.5 ug/ml after 50 mins by luminol-based chemiluminescence assay relative to control; format: functional
[15] = (§1) Inhibition of ROS generation in human PMN after 50 mins by luminol-based chemiluminescence assay; format: functional
[16] = species: Homo sapiens; experiment: as §1; format: functional
[17] = Antioxidant activity assessed as DPPH radical scavenging activity at 100 uM after 30 mins dark incubation; format: functional
[18] = Antioxidant activity assessed as DPPH radical scavenging activity at 50 uM after 30 mins dark incubation; format: functional
[19] = Antioxidant activity assessed as DPPH radical scavenging activity at 10 uM after 30 mins dark incubation; format: functional
[20] = tested on: Mus musculus; experiment: (§2) Inhibition of chlorpyrifos-induced testicular damage in albino mouse assessed as increase in spermatogenic cell layers at 20 mg/kg, qd administered via oral gavage followed by chlorpyrifos challenge at 30 mins post dose by haematoxylin and eosin staining-based light microscopic analysis; format: functional, organism-based
[21] = tested on: Mus musculus; experiment: as §2, with “appearance of well-organized” for “increase in”, “spermatogenic” for “spermatogenic cell”, “layers at different stages of spermatogenesis” for “layers”; format: functional, organism-based
[22] = tested on: Mus musculus; experiment: (§3) Inhibition of chlorpyrifos-induced testicular damage in albino mouse assessed as appearance of normal sertoli cells at 20 mg/kg, qd administered via oral gavage followed by chlorpyrifos challenge at 30 mins post dose by haematoxylin and eosin staining-based light microscopic analysis; format: functional, organism-based
[23] = tested on: Mus musculus; experiment: Inhibition of chlorpyrifos-induced testicular damage in albino mouse assessed as appearance of spermatozoa tails in lumina at 20 mg/kg, qd administered via oral gavage followed by chlorpyrifos challenge at 30 mins post dose by haematoxylin and eosin staining-based light microscopic analysis; format: functional, organism-based
[24] = tested on: Mus musculus; experiment: Inhibition of chlorpyrifos-induced fibrosis in albino mouse testis assessed as thin fibrous capsule at 20 mg/kg, qd administered via oral gavage followed by chlorpyrifos challenge at 30 mins post dose by masson's trichrome staining-based light microscopic analysis; format: functional, organism-based
[25] = tested on: Mus musculus; experiment: Inhibition of chlorpyrifos-induced fibrosis in albino mouse testis assessed as decrease in collagen in interstitium at 20 mg/kg, qd administered via oral gavage followed by chlorpyrifos challenge at 30 mins post dose by masson's trichrome staining-based light microscopic analysis; format: functional, organism-based
[26] = tested on: Mus musculus; experiment: Inhibition of chlorpyrifos-induced iNOS epression in albino mouse testes at 20 mg/kg, qd administered via oral gavage followed by chlorpyrifos challenge at 30 mins post dose by immunohistochemical analysis; format: functional, organism-based
[27] = tested on: Mus musculus; experiment: Inhibition of chlorpyrifos-induced caspase3 epression in albino mouse testes at 20 mg/kg, qd administered via oral gavage followed by chlorpyrifos challenge at 30 mins post dose by immunohistochemical analysis; format: functional, organism-based
[28] = tested on: Mus musculus; experiment: as §3, with “absence” for “appearance”, “crowdedness of interstitial” for “normal sertoli”, “cells with relatively low exudate” for “cells”; format: functional, organism-based
[29] = species: Mus musculus; conditions: 20 mg/kg
Description: Inhibition of chlorpyrifos-induced testicular damage in albino mouse assessed as appearance of spermatozoa tails in narrow lumina at 20 mg/kg, qd administered via oral gavage followed by chlorpyrifos challenge at 30 mins post dose by haematoxylin and eosin staining-based light microscopic analysis

[30] = species: Mus musculus; conditions: 20 mg/kg; remark: listed apart in the source
Description: Inhibition of chlorpyrifos-induced testicular damage in albino mouse assessed as appearance of vesicular nuclei in spermatogenic cells at 20 mg/kg, qd administered via oral gavage followed by chlorpyrifos challenge at 30 mins post dose by haematoxylin and eosin staining-based light microscopic analysis

[31] = species: Mus musculus; conditions: 20 mg/kg; remark: listed apart in the source
Description: Inhibition of chlorpyrifos-induced testicular damage in albino mouse assessed as appearance of cellular vaculations in germinal epithelium at 20 mg/kg, qd administered via oral gavage followed by chlorpyrifos challenge at 30 mins post dose by haematoxylin and eosin staining-based light microscopic analysis

[32] = species: Mus musculus; conditions: 20 mg/kg; remark: listed apart in the source
Description: Inhibition of chlorpyrifos-induced testicular damage in albino mouse assessed as absence of sloughed cells at 20 mg/kg, qd administered via oral gavage followed by chlorpyrifos challenge at 30 mins post dose by haematoxylin and eosin staining-based light microscopic analysis

[33] = species: Mus musculus; conditions: 20 mg/kg; remark: listed apart in the source
Description: Inhibition of chlorpyrifos-induced testicular damage in albino mouse assessed as appearance of separated semniferous tubules by narrow interstitium without exudate at 20 mg/kg, qd administered via oral gavage followed by chlorpyrifos challenge at 30 mins post dose by haematoxylin and eosin staining-based light microscopic analysis

[34] = tested on: MCF7; experiment: Growth inhibition of human MCF7 cells after 48 hrs by SRB assay; format: functional; conditions: MCF7, 48 h
[35] = tested on: MDA-MB-435; experiment: Growth inhibition of human MDA-MB-435 cells after 48 hrs by SRB assay; format: functional; conditions: MDA-MB-435, 48 h

Sequence of Serine/threonine-protein kinase B-raf (P28028 whole entry, looked up, stated change not applied): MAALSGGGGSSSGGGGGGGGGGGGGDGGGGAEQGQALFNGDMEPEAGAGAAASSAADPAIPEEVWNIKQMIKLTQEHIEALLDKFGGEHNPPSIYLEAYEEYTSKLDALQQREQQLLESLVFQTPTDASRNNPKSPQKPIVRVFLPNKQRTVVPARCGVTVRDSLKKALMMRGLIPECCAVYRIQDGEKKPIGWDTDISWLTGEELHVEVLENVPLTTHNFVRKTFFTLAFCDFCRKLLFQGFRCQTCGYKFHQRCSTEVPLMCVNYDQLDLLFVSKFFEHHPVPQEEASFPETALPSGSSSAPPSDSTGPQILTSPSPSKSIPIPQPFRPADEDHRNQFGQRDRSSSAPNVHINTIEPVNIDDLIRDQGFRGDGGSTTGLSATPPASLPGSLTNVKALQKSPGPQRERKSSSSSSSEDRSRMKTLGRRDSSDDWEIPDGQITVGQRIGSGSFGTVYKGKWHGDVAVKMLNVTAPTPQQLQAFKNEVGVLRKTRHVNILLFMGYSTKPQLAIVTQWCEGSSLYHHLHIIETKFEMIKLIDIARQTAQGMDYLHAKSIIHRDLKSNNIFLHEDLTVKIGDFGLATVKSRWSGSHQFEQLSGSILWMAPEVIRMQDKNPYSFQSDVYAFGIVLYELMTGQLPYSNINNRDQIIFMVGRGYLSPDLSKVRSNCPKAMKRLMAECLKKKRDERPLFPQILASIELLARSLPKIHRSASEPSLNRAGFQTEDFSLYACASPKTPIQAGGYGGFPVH
Sequence of Epidermal growth factor receptor (P00533 whole entry, the tested form may be a part): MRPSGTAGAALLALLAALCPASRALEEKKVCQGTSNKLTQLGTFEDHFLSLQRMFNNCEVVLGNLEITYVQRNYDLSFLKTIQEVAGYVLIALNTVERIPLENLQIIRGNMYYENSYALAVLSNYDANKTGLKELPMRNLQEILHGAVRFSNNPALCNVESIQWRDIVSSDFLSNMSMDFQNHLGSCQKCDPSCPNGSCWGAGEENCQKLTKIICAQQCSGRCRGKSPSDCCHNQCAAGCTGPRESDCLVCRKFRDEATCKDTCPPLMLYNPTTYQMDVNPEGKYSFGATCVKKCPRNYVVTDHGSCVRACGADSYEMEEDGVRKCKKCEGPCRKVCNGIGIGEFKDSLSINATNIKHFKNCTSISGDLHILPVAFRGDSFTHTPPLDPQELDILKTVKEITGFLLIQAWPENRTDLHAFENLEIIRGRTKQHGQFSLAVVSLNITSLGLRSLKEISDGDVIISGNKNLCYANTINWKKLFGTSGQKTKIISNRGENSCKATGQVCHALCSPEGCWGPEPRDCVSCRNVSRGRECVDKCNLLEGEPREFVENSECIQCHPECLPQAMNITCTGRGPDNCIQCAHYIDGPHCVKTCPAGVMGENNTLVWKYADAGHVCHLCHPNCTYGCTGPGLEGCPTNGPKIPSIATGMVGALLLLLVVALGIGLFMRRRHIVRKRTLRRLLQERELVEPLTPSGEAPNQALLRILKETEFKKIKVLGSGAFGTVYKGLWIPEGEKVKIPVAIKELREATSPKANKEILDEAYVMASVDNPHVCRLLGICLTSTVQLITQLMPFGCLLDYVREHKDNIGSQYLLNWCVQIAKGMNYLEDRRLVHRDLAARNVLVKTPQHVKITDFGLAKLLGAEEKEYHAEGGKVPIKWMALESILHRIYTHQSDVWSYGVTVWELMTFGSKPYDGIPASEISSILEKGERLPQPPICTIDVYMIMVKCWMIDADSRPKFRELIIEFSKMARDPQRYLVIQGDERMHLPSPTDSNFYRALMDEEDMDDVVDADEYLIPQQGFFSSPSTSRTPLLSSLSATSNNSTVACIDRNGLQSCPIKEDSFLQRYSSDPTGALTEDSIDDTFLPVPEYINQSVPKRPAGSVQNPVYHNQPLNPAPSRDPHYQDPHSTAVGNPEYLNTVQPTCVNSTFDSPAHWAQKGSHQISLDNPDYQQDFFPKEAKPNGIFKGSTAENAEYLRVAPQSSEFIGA

| IC50 [4] | IC50 [5] | IC50 [6] | IC50 [7] | IC50 [8] | Activity [9] | IC50 [11] | IC50 [15] | Structure (SMILES) | viability at 96 h, 50 µM [1] | inhibition at 0.78 µg/mL [2] | inhibition at 1.56 µg/mL [3] | inhibition at 3.13 µg/mL [12] | inhibition at 6.25 µg/mL [13] | inhibition at 12.5 µg/mL [14] | inhibition [16] | Activity [17] | Activity [18] | Activity [19] | inhibition [20] | inhibition [24] | also measured |
| --- | --- | --- | --- | --- | --- | --- | --- | --- | --- | --- | --- | --- | --- | --- | --- | --- | --- | --- | --- | --- | --- |
| 1300 nM | 1200 nM | 900 nM | 1800 nM | 900 nM | 930 a.u. | 1000 nM | 3360 nM | O=c1[nH]c(Cc2ccccc2)cn2c1cc1cc(Cl)ccc12 | 89% | 47% | 55% | 64% | 72% | 81% | Dose-dependent effect | 91.4% | 79.6% | 69.4% | Active | Active | IC50 [10]: 2400 nM; inhibition [21]: Active; inhibition [22]: Active; inhibition [23]: Active; inhibition [25]: Active; inhibition [26]: Active; inhibition [27]: Active; inhibition [28]: Active |
| 900 nM | 800 nM | 100 nM | 300 nM | 600 nM | 650 a.u. | 100 nM | 1480 nM | Cc1c2cc(Cl)ccc2n2cc(Cc3ccccc3)[nH]c(=O)c12 | 91% | 55% | 60% | 72% | 85% | 91% | Dose-dependent effect | 97.7% | 85.4% | 72.3% | Active | Active | inhibition [25]: Active; inhibition [26]: Active; inhibition [27]: Active; inhibition [29]: Active; inhibition [30]: Active; inhibition [31]: Active; inhibition [32]: Active; inhibition [33]: Active |
| – | – | – | – | – | – | – | – | Cc1ccc(S(=O)(=O)N2c3ccccc3CC2c2nc(Br)cnc2N)cc1 (stereo not drawn) | – | – | – | – | – | – | – | – | – | – | – | – | GI50 [34]: 820 nM; GI50 [35]: 290 nM |
